Laboratory results: ChEMBL document CHEMBL4190183 (Medchemcomm, 2016)
≈ marks a conversion by molar mass, not a printed value. Calls of active or inactive are those of the source. The rule behind the calls is not given here.

How the values were obtained:
[1] = target: T1, DNA ligase 1 (Homo sapiens, UniProt P18858); experiment: Binding affinity to human full length N-terminal His-tagged DNA ligase 1 expressed in Escherichia coli BL21(DE3)RP cells assessed as destabilization of enzyme-nicked oligo DNA complex after 2 hrs by electrophoretic mobility shift assay
[2] = target: T1, DNA ligase 1; experiment: Binding affinity to human N-terminal His-tagged DNA ligase 1 DBD expressed in Escherichia coli BL21(DE3)RP cells at 1.25 to 5 uM by CD spectroscopic method
[3] = target: T1, DNA ligase 1; experiment: Binding affinity to human full length N-terminal His-tagged DNA ligase 1 expressed in Escherichia coli BL21(DE3)RP cells at 10 uM by fluorescence spectroscopic analysis
[4] = system: A549; experiment: Cytotoxicity against human A549 cells assessed as cell death at 10 uM after 48 hrs by MTT assay relative to control; format: functional
[5] = Aqueous solubility of the compound in triple distilled water at 1 to 1000 uM after 2 hrs by nephelometric method; format: physicochemical
[6] = target: T1, DNA ligase 1; experiment: Binding affinity to human full length N-terminal His-tagged DNA ligase 1 expressed in Escherichia coli BL21(DE3)RP cells at 1.25 to 5 uM by CD spectroscopic method
[7] = system: HepG2; experiment: Antiproliferative activity against human HepG2 cells assessed as decrease in PCNA expression level at 10 to 20 uM after 48 hrs by Western blot analysis; format: functional, cell-based
[8] = target: T1, DNA ligase 1; experiment: Inhibition of human DNA ligase 1 expressed in Escherichia coli BL21(DE3)RP cells assessed as reduction in fluorescently labelled ds nicked DNA substrate ligation at 100 uM after 30 mins by urea gel based imaging method relative to control
[9] = system: HepG2; experiment: Antimetastatic activity against human HepG2 cells assessed as wound healing at 20 uM after 12 hrs by microscopic method (reference value: 21%); format: functional
[10] = system: HepG2; experiment: Induction of DNA damage in human HepG2 cells assessed as increase in gamma-H2AX expression levels at 10 to 20 uM after 48 hrs by Western blot analysis; format: functional, cell-based
[11] = system: HepG2; experiment: Cell cycle arrest in human HepG2 cells assessed as accumulation at G0/G1 phase at 10 uM after 24 hrs by propidium iodide staining based flow cytometry (reference value: 56.8 +/- 1.16%); format: functional
[12] = system: DLD-1; experiment: Cytotoxicity against human DLD1 cells assessed as cell death at 10 uM after 48 hrs by MTT assay relative to control; format: functional
[13] = organism: Mesocricetus auratus; experiment: Intrinsic clearance in hamster liver microsomes at 1 uM by LC-MS/MS analysis; details: golden Syrian hamster
[14] = target: T1, DNA ligase 1; experiment: Inhibition of human DNA ligase 1 expressed in Escherichia coli BL21(DE3)RP cells assessed as reduction in nick sealing activity using fluorescently labelled ds nicked DNA as substrate after 30 mins by urea gel based imaging method
[15] = system: HepG2; experiment: Antimetastatic activity against human HepG2 cells assessed as wound healing at 10 uM after 12 hrs by microscopic method (reference value: 21%); format: functional
[16] = system: MDA-MB-231; experiment: Cytotoxicity against human MDA-MB-231 cells assessed as cell death at 10 uM after 48 hrs by MTT assay relative to control; format: functional
[17] = target: T1, DNA ligase 1; experiment: Binding affinity to human N-terminal His-tagged DNA ligase 1 DBD expressed in Escherichia coli BL21(DE3)RP cells at 10 uM by fluorescence spectroscopic analysis
[18] = system: HepG2; experiment: Antimetastatic activity against human HepG2 cells assessed as wound healing at 20 uM after 18 hrs by microscopic method (reference value: 32%); format: functional
[19] = system: HepG2; experiment: Cell cycle arrest in human HepG2 cells assessed as accumulation at G0/G1 phase at 10 uM after 12 hrs by propidium iodide staining based flow cytometry (reference value: 42.7 +/- 1.5%); format: functional
[20] = system: HCT-116; experiment: Cytotoxicity against human HCT116 cells assessed as cell death at 10 uM after 48 hrs by MTT assay relative to control; format: functional
[21] = Retention time of the compound by LC-MS/MS analysis; format: physicochemical
[22] = system: HepG2; experiment: Anticlonogenic activity against human HepG2 cells at >= 10 uM incubated for 48 hrs measured after 10 days by crystal violet staining based microscopy; format: functional, cell-based
[23] = system: DNA; experiment: Induction of linearized Escherichia coli pUC18 DNA intercalation up to 600 uM after 30 mins by agarose gel electrophoresis method; format: nucleic-acid assay
[24] = system: DNA; experiment: Inhibition of EtBr binding to Escherichia coli pUC18 DNA up to 400 uM after 30 mins by fluorescence spectroscopic analysis; format: nucleic-acid assay
[25] = target: T1, DNA ligase 1; experiment: Residual activity of human DNA ligase 1 expressed in Escherichia coli BL21(DE3)RP cells assessed as DNA ligation at 100 uM using fluorescently labelled ds nicked DNA as substrate after 30 mins by urea gel based imaging method relative to control
[26] = Stability of the compound in simulated gastric fluid at 5 uM at pH 1.2 measured up to 60 mins by LC-MS/MS analysis; format: ADME; details: simulated gi fluid, pH 1.2, 1 h
[27] = system: HepG2; experiment: Cell cycle arrest in human HepG2 cells assessed as accumulation at G0/G1 phase at 20 uM after 24 hrs by propidium iodide staining based flow cytometry (reference value: 56.8 +/- 1.16%); format: functional
[28] = Stability of the compound in simulated intestinal fluid at 5 uM at pH 6.8 measured up to 120 mins by LC-MS/MS analysis; format: ADME; details: simulated gi fluid, pH 6.8, 2 h
[29] = system: HepG2; experiment: Induction of apoptosis in human HepG2 cells assessed as increase in p53 expression levels at 10 to 20 uM after 48 hrs by Western blot analysis; format: functional, cell-based
[30] = system: HepG2; experiment: Cell cycle arrest in human HepG2 cells assessed as accumulation at G0/G1 phase at 20 uM after 12 hrs by propidium iodide staining based flow cytometry (reference value: 42.7 +/- 1.5%); format: functional
[31] = organism: Mesocricetus auratus; experiment: Half life in hamster liver microsomes at 1 uM by LC-MS/MS analysis; details: golden Syrian hamster
[32] = system: HEK293; experiment: Cytotoxicity against HEK293 cells assessed as cell death at 10 uM after 48 hrs by MTT assay relative to control; format: cell-based; details: human, hek293, 48 h
[33] = system: HepG2; experiment: Cytotoxicity against human HepG2 cells assessed as decrease in cell viability after 48 hrs by MTT assay; format: functional, cell-based
[34] = system: HepG2; experiment: Cytotoxicity against human HepG2 cells assessed as cell death at 10 uM after 48 hrs by MTT assay relative to control; format: functional
[35] = system: HepG2; experiment: Synergistic cytotoxicity against human HepG2 cells assessed as induction of cell death at 5 uM after 48 hrs in presence of 0.625 uM doxorubicin by MTT assay; format: functional, cell-based
[36] = system: HepG2; experiment: Induction of apoptosis in human HepG2 cells after 48 hrs by Annexin-V/PI staining based flow cytometry; format: functional, cell-based
[37] = system: HepG2; experiment: Antimetastatic activity against human HepG2 cells assessed as wound healing at 10 uM after 18 hrs by microscopic method (reference value: 32%); format: functional
[38] = system: HepG2; experiment: Induction of cell death in human HepG2 cells at 5 uM after 48 hrs by MTT assay; format: functional, cell-based
[39] = Protein binding in hamster plasma at 10 uM at pH 7.4 incubated for 30 mins measured after 10 hrs by LC-MS/MS based equilibrium dialysis method; format: ADME, cell-free, Cricetulus griseus; details: chinese hamster, read-out: PPB
[40] = organism: Mesocricetus auratus; experiment: Metabolic stability in hamster liver microsomes assessed as parent compound remaining at 1 uM after 60 mins in presence of NADPH by LC-MS/MS analysis; details: golden Syrian hamster

T1 sequence (P18858 whole entry): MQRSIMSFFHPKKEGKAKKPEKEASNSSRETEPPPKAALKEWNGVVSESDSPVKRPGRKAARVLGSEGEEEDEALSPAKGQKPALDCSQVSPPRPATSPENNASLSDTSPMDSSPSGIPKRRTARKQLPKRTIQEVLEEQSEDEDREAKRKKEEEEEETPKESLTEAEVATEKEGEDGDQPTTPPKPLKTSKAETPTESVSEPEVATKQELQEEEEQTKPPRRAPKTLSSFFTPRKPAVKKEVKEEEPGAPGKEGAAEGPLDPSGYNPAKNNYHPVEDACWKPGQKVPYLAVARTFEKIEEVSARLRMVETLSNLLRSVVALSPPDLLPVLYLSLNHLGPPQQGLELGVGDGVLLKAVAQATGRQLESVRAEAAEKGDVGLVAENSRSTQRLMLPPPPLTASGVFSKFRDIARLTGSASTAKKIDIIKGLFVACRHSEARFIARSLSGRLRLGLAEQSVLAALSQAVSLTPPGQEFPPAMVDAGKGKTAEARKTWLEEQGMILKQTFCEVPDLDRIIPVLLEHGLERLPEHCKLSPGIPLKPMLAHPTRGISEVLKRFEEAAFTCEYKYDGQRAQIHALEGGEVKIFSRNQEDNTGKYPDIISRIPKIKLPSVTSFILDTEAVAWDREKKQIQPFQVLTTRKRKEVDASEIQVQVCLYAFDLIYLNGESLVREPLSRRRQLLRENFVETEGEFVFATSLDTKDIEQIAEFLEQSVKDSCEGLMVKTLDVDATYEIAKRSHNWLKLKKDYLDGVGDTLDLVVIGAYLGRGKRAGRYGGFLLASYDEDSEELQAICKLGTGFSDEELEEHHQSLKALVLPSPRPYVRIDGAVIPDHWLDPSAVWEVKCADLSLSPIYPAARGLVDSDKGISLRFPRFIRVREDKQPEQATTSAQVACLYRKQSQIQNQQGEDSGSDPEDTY

CCOC(=O)C1=C(C)NC(=O)NC1c1cc(/C=N/NC(=O)Nc2cccc(OC)c2)c(O)c(C(C)(C)C)c1 (configuration not stated)
Activity [1]: Dose-dependent effect | Activity [2]: Active | Activity [3]: Active | Activity [4]: 18.1% | solubility kinetic at 2 h [5]: 30 µM (≈ 15.7 µg/mL) | Activity [6]: Active | Activity [7]: Active | inhibition [8]: 82.7% | Activity [9]: 7.5% | Activity [10]: Active | Activity [11]: 68.1% | Activity [12]: 29.4% | CLH [13]: 33.29 µL/min/mg | IC50 [14]: 12.4 µM | inhibition [14]: Dose-dependent effect | Activity [15]: 11.2% | Activity [16]: 28.4% | Activity [17]: Active | Activity [18]: 5.5% | Activity [19]: 59.1% | Activity [20]: 18.2% | Retention_time [21]: 2.98 min | Activity [22]: Active | Activity [23]: inactive | inhibition [24]: inactive | ligation [25]: 17.4% | Stability [26]: Stable | Activity [27]: 84.8% | Stability [28]: Stable | Activity [29]: Active | Activity [30]: 64% | half-life at 1 µM [31]: 20.8 min | Activity [32]: 11.7% | Activity [33]: Dose-dependent effect | IC50 ([33]; HepG2, 48 h): 10.6 µM | Activity [34]: 52.2% | Activity [35]: Active | Activity [36]: Dose-dependent effect | Activity [37]: 16.4% | Activity [38]: Active | fraction unbound at 10 h, 10 µM [39]: 0.0098 | remaining at 1 h, 1 µM [40]: 12.9%
